Test results from article PMC5794219 (SLAS discovery : advancing life sciences R & D, 2017).

Legend:
P. aeruginosa HisRS = biological target: T1, P. aeruginosa HisRS (Pseudomonas aeruginosa, UniProt Q9HXJ5); experiment: ATP:PPi exchange reactions; assay type: biochemical; settings: substrate varied, other substrate constant at 2 mM
T1 sequence (Q9HXJ5 1-429): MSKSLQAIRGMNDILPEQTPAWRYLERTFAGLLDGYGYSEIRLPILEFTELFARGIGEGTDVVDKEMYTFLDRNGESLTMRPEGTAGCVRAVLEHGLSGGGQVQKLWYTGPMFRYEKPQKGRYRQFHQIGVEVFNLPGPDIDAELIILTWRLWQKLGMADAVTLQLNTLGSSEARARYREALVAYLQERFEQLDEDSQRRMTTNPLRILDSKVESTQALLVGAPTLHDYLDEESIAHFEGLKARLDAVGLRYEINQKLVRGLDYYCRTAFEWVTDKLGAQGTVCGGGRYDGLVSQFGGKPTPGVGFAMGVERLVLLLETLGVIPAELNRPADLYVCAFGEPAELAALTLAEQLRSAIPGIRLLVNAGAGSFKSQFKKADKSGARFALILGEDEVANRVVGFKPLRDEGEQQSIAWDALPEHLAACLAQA

E. coli HisRS = settings: cited from earlier work
[1] = substrate: N[C@@H](Cc1c[nH]cn1)C(=O)O; experiment: ATP:PPi exchange reactions; assay type: biochemical, Pseudomonas aeruginosa; settings: other: substrate varied, other substrate constant at 2 mM; pH 7.5; 37.0 °C
[2] = substrate: Nc1ncnc2c1ncn2[C@@H]1O[C@H](COP(=O)(O)OP(=O)(O)OP(=O)(O)O)[C@@H](O)[C@H]1O; experiment: ATP:[32P]PPi exchange at pH 7.5, 37 °C, 0.05 µM HisRS, ATP varied; assay type: biochemical

Question: Which Km (P. aeruginosa HisRS) does the source give for Nc1ncnc2c1ncn2[C@@H]1O[C@H](COP(=O)(O)OP(=O)(O)OP(=O)(O)O)[C@@H](O)[C@H]1O [ATP] here?
Answer: The Km was 298 µM.

Question: What about the “kcat (turnover number)” value (P. aeruginosa HisRS) of the same molecule?
Answer: The value was 16.8 s⁻¹.

Question: And the Km (E. coli HisRS; E. coli HisRS ref 12)?
Answer: Its Km is 890 µM.

Question: What about the kcat (E. coli HisRS; E. coli HisRS, interaction with ATP ref 24) of the same molecule?
Answer: The kcat was 34 s⁻¹.

Question: Which turnover (E. coli HisRS; E. coli HisRS, interaction with His, different research groups ref 24, 25) does the source give for N[C@@H](Cc1c[nH]cn1)C(=O)O [histidine] here?
Answer: The turnover was 7 to 142 s⁻¹.

B1: P. aeruginosa HisRS (Pseudomonas aeruginosa PAO1) (protein)
chain: MSKSLQAIRGMNDILPEQTPAWRYLERTFAGLLDGYGYSEIRLPILEFTELFARGIGEGTDVVDKEMYTFLDRNGESLTMRPEGTAGCVRAVLEHGLSGGGQVQKLWYTGPMFRYEKPQKGRYRQFHQIGVEVFNLPGPDIDAELIILTWRLWQKLGMADAVTLQLNTLGSSEARARYREALVAYLQERFEQLDEDSQRRMTTNPLRILDSKVESTQALLVGAPTLHDYLDEESIAHFEGLKARLDAVGLRYEINQKLVRGLDYYCRTAFEWVTDKLGAQGTVCGGGRYDGLVSQFGGKPTPGVGFAMGVERLVLLLETLGVIPAELNRPADLYVCAFGEPAELAALTLAEQLRSAIPGIRLLVNAGAGSFKSQFKKADKSGARFALILGEDEVANRVVGFKPLRDEGEQQSIAWDALPEHLAACLAQA
Question: Which Km [1] does the source give for B1 here?
Answer: Its Km is 37.6 µM.

Question: What about the kcat [1] of the same molecule?
Answer: The kcat was 8.32 s⁻¹.

Question: What about the Km [2] of the same molecule?
Answer: The Km was 298.5 µM.
